# What was measured:
# Assay type in all cases: functional
# Mus musculus [1] = test: Compound was evaluated for the percent increase in life span against M5076 sarcoma in mice at a sc dose of 100 mg/kg/day.; details: route subcutaneous
# Mus musculus [2] = test: Compound was evaluated for the percent increase in life span against M5076 sarcoma in mice at a sc dose of 200 mg/kg/day.; details: route subcutaneous
# Mus musculus [3] = test: Compound was evaluated for the percent increase in life span against M5076 sarcoma in mice at a sc dose of 300 mg/kg/day.; details: route subcutaneous
# Mus musculus [4] = test: Compound was evaluated for the body weight change from day 1 to day 12 against M5076 sarcoma in mice at a sc dose of 100 mg/kg/day.; details: route subcutaneous
# Mus musculus [5] = test: Compound was evaluated for the body weight change from day 1 to day 12 against M5076 sarcoma in mice at a sc dose of 200 mg/kg/day.; details: route subcutaneous
# Mus musculus [6] = test: Compound was evaluated for the tumor growth inhibition on day 21 against M5076 sarcoma implanted sc in mice at a dose of 100 mg/kg/day.; details: 504 h, route subcutaneous, read-out: TGI
# Mus musculus [7] = test: Compound was evaluated for the tumor growth inhibition on day 21 against M5076 sarcoma implanted sc in mice at a dose of 200 mg/kg/day.; details: 504 h, route subcutaneous, read-out: TGI
# Mus musculus [8] = test: Compound was evaluated for the body weight change from day 1 to day 12 against M5076 sarcoma in mice at a sc dose of 300 mg/kg/day: toxic; details: route subcutaneous
# Mus musculus [9] = test: Compound was evaluated for the tumor growth inhibition on day 21 against M5076 sarcoma implanted sc in mice at a dose of 300 mg/kg/day.; details: 504 h, route subcutaneous, read-out: TGI
# Mus musculus [10] = test: Compound was evaluated for the body weight change from day 1 to day 12 against M5076 sarcoma in mice at a sc dose of 300 mg/kg/day.; details: route subcutaneous
# Mus musculus [11] = test: Compound was evaluated for the percent increase in life span against M5076 sarcoma in mice at a sc dose of 25 mg/kg/day.; details: route subcutaneous
# Mus musculus [12] = test: Compound was evaluated for the percent increase in life span against M5076 sarcoma in mice at a sc dose of 50 mg/kg/day.; details: route subcutaneous
# Mus musculus [13] = test: Compound was evaluated for the body weight change from day 1 to day 12 against M5076 sarcoma in mice at a sc dose of 25 mg/kg/day.; details: route subcutaneous
# Mus musculus [14] = test: Compound was evaluated for the tumor growth inhibition on day 21 against M5076 sarcoma implanted sc in mice at a dose of 25 mg/kg/day.; details: 504 h, route subcutaneous, read-out: TGI
# Mus musculus [15] = test: Compound was evaluated for the tumor growth inhibition on day 21 against M5076 sarcoma implanted sc in mice at a dose of 50 mg/kg/day.; details: 504 h, route subcutaneous, read-out: TGI
# Mus musculus [16] = test: Compound was evaluated for the body weight change from day 1 to day 12 against M5076 sarcoma in mice at a sc dose of 50 mg/kg/day.; details: route subcutaneous
SMILES,ILS at 100 mg/kg/day (Mus musculus [1]),ILS at 200 mg/kg/day (Mus musculus [2]),ILS at 300 mg/kg/day (Mus musculus [3]),Weight change (Mus musculus [4]),Weight change (Mus musculus [5]),inhibition in vivo at 100 mg/kg/day (Mus musculus [6]),inhibition in vivo at 200 mg/kg/day (Mus musculus [7]),Weight change (Mus musculus [8]),inhibition in vivo at 300 mg/kg/day (Mus musculus [9]),Weight change (Mus musculus [10]),ILS at 25 mg/kg/day (Mus musculus [11]),ILS at 50 mg/kg/day (Mus musculus [12]),Weight change (Mus musculus [13]),inhibition in vivo at 25 mg/kg/day (Mus musculus [14]),inhibition in vivo at 50 mg/kg/day (Mus musculus [15]),Weight change (Mus musculus [16])
CCCCCCCCCCCCCC(=O)OCC(COP(=O)([O-])OC[C@H]1O[C@@H](n2ccc(N)nc2=O)[C@@H](C#N)[C@@H]1O)OC(=O)CCCCCCCCCCCCC.[Na+] (stereo not given in full),4%,22%,0%,0.8 g,0.3 g,80%,97%,1 g,,,,,,,,
CCCCCCCCCCCCCCCC(=O)OCC(COP(=O)([O-])OC[C@H]1O[C@@H](n2ccc(N)nc2=O)[C@@H](C#N)[C@@H]1O)OC(=O)CCCCCCCCCCCCCCC.[Na+] (stereo not given in full),21%,38%,40%,0.9 g,0 g,93%,98%,,100%,1 g,,,,,,
CCCCC/C=C\C/C=C\CCCCCCCC(=O)OCC(COP(=O)([O-])OC[C@H]1O[C@@H](n2ccc(N)nc2=O)[C@@H](C#N)[C@@H]1O)OC(=O)CCCCCCC/C=C\C/C=C\CCCCC.[Na+] (stereo not given in full),15%,10%,15%,-0.3 g,1 g,93%,,,,1 g,,,,,,
CCCCCCCC/C=C\CCCCCCCC(=O)OCC(COP(=O)([O-])OC[C@H]1O[C@@H](n2ccc(N)nc2=O)[C@@H](C#N)[C@@H]1O)OC(=O)CCCCCCC/C=C\CCCCCCCC.[Na+] (stereo not given in full),13%,-12%,-58%,0.6 g,2 g,98%,,,,3 g,-3%,7%,1.6 g,69%,92%,0.8 g
CCCCCCCCCCCCCCCCCC(=O)OCC(COP(=O)([O-])OC[C@H]1O[C@@H](n2ccc(N)nc2=O)[C@@H](C#N)[C@@H]1O)OC(=O)CCCCCCCCCCCCCCCCC.[Na+] (stereo not given in full),20%,49%,60%,1.2 g,-0.2 g,88%,97%,,98%,-0.3 g,,,,,,
N#C[C@H]1[C@H](O)[C@@H](CO)O[C@H]1n1ccc(N)nc1=O [TAS-109],-11%,-7%,14%,1.1 g,1.2 g,38%,47%,,67%,1 g,,,,,,

# Source: ChEMBL document CHEMBL1129023, “Nucleosides and nucleotides. 150. Enzymatic synthesis of 5-phosphatidyl derivatives of (CNDAC) and their notable antitumor effects in mice1” (1996)
